Biological target: P. falciparum apicoplast DNA polymerase (Pf-apPOL) (Plasmodium falciparum, UniProt Q8ILY1)
Assay: Fluorescence-based high-throughput DNA polymerase assay (molecular beacon), primary screen and dose-response;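 on % inhibition ApPOL 90': test concentration in µM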;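 on % inhibition apPOL 180': test concentration in µM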
Type: biochemical
How it was run: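 Single-point screening used 10 µM compound with 20 nM polymerase, 20 nM hairpin substrate and 6 µM dNTPs for 90 min at 25 °C. Confirmatory titrations (2.5–80 µM) followed fluorescence at three times, and IC50 was derived from a fit including a cooperativity term n.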

[1] = supplemental file 2, sheet IC50 nontoxic compounds; Pf-apPOL

Chain of P. falciparum apicoplast DNA polymerase (Pf-apPOL) (Q8ILY1 entry or part of it): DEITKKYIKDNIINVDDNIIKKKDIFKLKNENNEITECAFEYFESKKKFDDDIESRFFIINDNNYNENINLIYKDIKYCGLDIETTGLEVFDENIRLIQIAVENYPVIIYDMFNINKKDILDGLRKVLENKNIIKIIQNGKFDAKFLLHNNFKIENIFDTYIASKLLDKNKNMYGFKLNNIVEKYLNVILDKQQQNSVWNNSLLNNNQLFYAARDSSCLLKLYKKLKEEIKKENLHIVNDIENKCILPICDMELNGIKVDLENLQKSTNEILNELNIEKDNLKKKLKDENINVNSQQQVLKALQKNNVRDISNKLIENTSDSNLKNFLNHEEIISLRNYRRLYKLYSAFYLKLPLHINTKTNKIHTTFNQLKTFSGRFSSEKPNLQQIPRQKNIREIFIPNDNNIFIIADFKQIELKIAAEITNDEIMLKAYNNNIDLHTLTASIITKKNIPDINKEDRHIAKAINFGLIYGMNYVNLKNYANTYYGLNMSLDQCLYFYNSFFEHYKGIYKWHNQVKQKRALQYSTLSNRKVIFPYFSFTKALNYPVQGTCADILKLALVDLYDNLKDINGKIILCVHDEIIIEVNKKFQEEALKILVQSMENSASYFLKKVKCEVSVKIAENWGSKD

Cc1nn(CC(=O)NCCSCc2ccco2)c(C)c1Br [KU0267182]
DNA Pol (186 hits, value of the hit list (primary screen); unit not given; 90 min, 10 µM): 72
% inhibition Apo pol 10' (DRC-1; 10'; concentration 2.5): 1.812%
% inhibition Apo pol 10' (DRC-1; 10'; concentration 5): 6.711%
% inhibition Apo pol 10' (DRC-1; 10'; concentration 10): 15.4752%
% inhibition Apo pol 10' (DRC-1; 10'; concentration 20): 17.8463%
% inhibition Apo pol 10' (DRC-1; 10'; concentration 40): 47.0773%
% inhibition Apo pol 10' (DRC-1; 10'; concentration 80): 72.2462%
% inhibition Apol 90' (DRC-1; 90'; concentration 2.5): -1.178%
% inhibition Apol 90' (DRC-1; 90'; concentration 5): 2.416%
% inhibition Apol 90' (DRC-1; 90'; concentration 10): 7.223%
% inhibition Apol 90' (DRC-1; 90'; concentration 20): 9.063%
% inhibition Apol 90' (DRC-1; 90'; concentration 40): 29.9709%
% inhibition Apol 90' (DRC-1; 90'; concentration 80): 56.479%
% inhibition apPOL 180' (DRC-1; 180'; concentration 2.5): -4.52%
% inhibition apPOL 180' (DRC-1; 180'; concentration 5): -1.314%
% inhibition apPOL 180' (DRC-1; 180'; concentration 10): 2.547%
% inhibition apPOL 180' (DRC-1; 180'; concentration 20): 1.732%
% inhibition apPOL 180' (DRC-1; 180'; concentration 40): 16.5888%
% inhibition apPOL 180' (DRC-1; 180'; concentration 80): 39.2205%
% inhibition Apo pol 5' (DRC-2, 5', concentration 2.5): 6%
% inhibition Apo pol 5' (DRC-2, 5', concentration 5): 7.46%
% inhibition Apo pol 5' (DRC-2, 5', concentration 10): 16%
% inhibition Apo pol 5' (DRC-2, 5', concentration 20): 23%
% inhibition Apo pol 5' (DRC-2, 5', concentration 40): 43%
% inhibition Apo pol 5' (DRC-2, 5', concentration 80): 55%
% inhibition Apol 40' (DRC-2, 40', concentration 2.5): 7.41%
% inhibition Apol 40' (DRC-2, 40', concentration 5): 7%
% inhibition Apol 40' (DRC-2, 40', concentration 10): 15%
% inhibition Apol 40' (DRC-2, 40', concentration 20): 21%
% inhibition Apol 40' (DRC-2, 40', concentration 40): 45%
% inhibition Apol 40' (DRC-2, 40', concentration 80): 64%
% inhibition ApPOL 90' (DRC-2, 90', concentration 2.5): 6%
% inhibition ApPOL 90' (DRC-2, 90', concentration 5): 4%
% inhibition ApPOL 90' (DRC-2, 90', concentration 10): 12%
% inhibition ApPOL 90' (DRC-2, 90', concentration 20): 16%
% inhibition ApPOL 90' (DRC-2, 90', concentration 40): 39%
% inhibition ApPOL 90' (DRC-2, 90', concentration 80): 63%
% inhibition apPOL 180' (DRC-2, 180', concentration 2.5): 0.763%
% inhibition apPOL 180' (DRC-2, 180', concentration 5): -0.774%
% inhibition apPOL 180' (DRC-2, 180', concentration 10): 3.79%
% inhibition apPOL 180' (DRC-2, 180', concentration 20): 7.41%
% inhibition apPOL 180' (DRC-2, 180', concentration 40): 27%
% inhibition apPOL 180' (DRC-2, 180', concentration 80): 55%
% inhibition Apo pol 5' (DRC-2; 5'; concentration 2.5): 6%
% inhibition Apo pol 5' (DRC-2; 5'; concentration 10): 16%
% inhibition Apo pol 5' (DRC-2; 5'; concentration 80): 55%
% inhibition Apol 40' (DRC-2; 40'; concentration 2.5): 7.41%
% inhibition ApPOL 90' (DRC-2; 90'; concentration 2.5): 6%
% inhibition ApPOL 90' (DRC-2; 90'; concentration 20): 16%
% inhibition apPOL 180' (DRC-2; 180'; concentration 20): 7.41%
% inhibition apPOL 180' (DRC-2; 180'; concentration 80): 55%
DNA Pol (primary screen value, 'DNA Pol' only; 90 min, 10 µM): 72

Cc1cc(C)c2c(c1)C1C=CCC1C(c1ccc(C(=O)O)cc1)N2 (stereo not drawn) [Molecule 102]
IC50 [1]: 2.89 µM

COc1cc(Cl)c(C)cc1NC(=O)Cn1ccc2c(=O)[nH]ccc21 [Molecule 33, COc1cc(Cl)c(cc1NC(=O)Cn1ccc2c1cc[nH]c2=O)C]
% inhibition Apo pol 10' (DRC-1; 10'; concentration 2.5): 1.493%
% inhibition Apo pol 10' (DRC-1; 10'; concentration 5): 13.6047%
% inhibition Apo pol 10' (DRC-1; 10'; concentration 10): 50.6447%
% inhibition Apo pol 10' (DRC-1; 10'; concentration 20): 68.9678%
% inhibition Apo pol 10' (DRC-1; 10'; concentration 40): 82.7027%
% inhibition Apo pol 10' (DRC-1; 10'; concentration 80): 78.8716%
% inhibition Apol 90' (DRC-1; 90'; concentration 2.5): -1.924%
% inhibition Apol 90' (DRC-1; 90'; concentration 5): 4.488%
% inhibition Apol 90' (DRC-1; 90'; concentration 10): 37.9384%
% inhibition Apol 90' (DRC-1; 90'; concentration 20): 62.017%
% inhibition Apol 90' (DRC-1; 90'; concentration 40): 81.936%
% inhibition Apol 90' (DRC-1; 90'; concentration 80): 83.5925%
% inhibition apPOL 180' (DRC-1; 180'; concentration 2.5): -6.054%
% inhibition apPOL 180' (DRC-1; 180'; concentration 5): -2.934%
% inhibition apPOL 180' (DRC-1; 180'; concentration 10): 23.1917%
% inhibition apPOL 180' (DRC-1; 180'; concentration 20): 50.4837%
% inhibition apPOL 180' (DRC-1; 180'; concentration 40): 76.46%
% inhibition apPOL 180' (DRC-1; 180'; concentration 80): 83.9917%
% inhibition Apo pol 5' (DRC-2; 5'; concentration 2.5): -0.547%
% inhibition Apo pol 5' (DRC-2; 5'; concentration 5): 14%
% inhibition Apo pol 5' (DRC-2; 5'; concentration 10): 36%
% inhibition Apo pol 5' (DRC-2; 5'; concentration 20): 42%
% inhibition Apo pol 5' (DRC-2; 5'; concentration 40): 40%
% inhibition Apo pol 5' (DRC-2; 5'; concentration 80): 31%
% inhibition Apol 40' (DRC-2; 40'; concentration 2.5): -1.56%
% inhibition Apol 40' (DRC-2; 40'; concentration 5): 18%
% inhibition Apol 40' (DRC-2; 40'; concentration 10): 46%
% inhibition Apol 40' (DRC-2; 40'; concentration 20): 60%
% inhibition Apol 40' (DRC-2; 40'; concentration 40): 62%
% inhibition Apol 40' (DRC-2; 40'; concentration 80): 57%
% inhibition ApPOL 90' (DRC-2; 90'; concentration 2.5): -2%
% inhibition ApPOL 90' (DRC-2; 90'; concentration 5): 15%
% inhibition ApPOL 90' (DRC-2; 90'; concentration 10): 45%
% inhibition ApPOL 90' (DRC-2; 90'; concentration 20): 61%
% inhibition ApPOL 90' (DRC-2; 90'; concentration 40): 65%
% inhibition ApPOL 90' (DRC-2; 90'; concentration 80): 63%
% inhibition apPOL 180' (DRC-2; 180'; concentration 2.5): -9%
% inhibition apPOL 180' (DRC-2; 180'; concentration 5): 6.65%
% inhibition apPOL 180' (DRC-2; 180'; concentration 10): 35%
% inhibition apPOL 180' (DRC-2; 180'; concentration 20): 56%
% inhibition apPOL 180' (DRC-2; 180'; concentration 40): 67%
% inhibition apPOL 180' (DRC-2; 180'; concentration 80): 68%
DNA Pol (primary screen value by plate and well; 90 min, 10 µM): 43
DNA Pol (primary screen value of the 186 hits; unit not given; 90 min, 10 µM): 43

COc1ccc2c(c1)C(c1ccccc1OC)CC(=O)O2 (stereo not drawn) [Molecule 38, COc1ccc2c(c1)C(CC(=O)O2)c1ccccc1OC]
DNA Pol ('DNA Pol' of the 186 hits list (primary screen result); unit not given; 90 min, 10 µM): 27
% inhibition Apo pol 10' (DRC-1; 10'; concentration 2.5): 10.6274%
% inhibition Apo pol 10' (DRC-1; 10'; concentration 5): 16.1295%
% inhibition Apo pol 10' (DRC-1; 10'; concentration 10): 45.2437%
% inhibition Apo pol 10' (DRC-1; 10'; concentration 20): 76.7316%
% inhibition Apo pol 10' (DRC-1; 10'; concentration 40): 94.6893%
% inhibition Apo pol 10' (DRC-1; 10'; concentration 80): 97.2345%
% inhibition Apol 90' (DRC-1; 90'; concentration 2.5): -7.663%
% inhibition Apol 90' (DRC-1; 90'; concentration 5): -2.39%
% inhibition Apol 90' (DRC-1; 90'; concentration 10): 21.9297%
% inhibition Apol 90' (DRC-1; 90'; concentration 20): 56.4964%
% inhibition Apol 90' (DRC-1; 90'; concentration 40): 89.2946%
% inhibition Apol 90' (DRC-1; 90'; concentration 80): 96.5262%
% inhibition apPOL 180' (DRC-1; 180'; concentration 2.5): -11.4597%
% inhibition apPOL 180' (DRC-1; 180'; concentration 5): -6.316%
% inhibition apPOL 180' (DRC-1; 180'; concentration 10): 13.8407%
% inhibition apPOL 180' (DRC-1; 180'; concentration 20): 46.2939%
% inhibition apPOL 180' (DRC-1; 180'; concentration 40): 87.0263%
% inhibition apPOL 180' (DRC-1; 180'; concentration 80): 96.2979%
% inhibition Apol 40' (DRC-2, 40', concentration 10 (unit not given)): 27%
% inhibition ApPOL 90' (DRC-2, 90', concentration 5 (unit not given)): 7%
% inhibition apPOL 180' (DRC-2, 180', concentration 5 (unit not given)): 7%
% inhibition Apo pol 5' (DRC-2; 5'; concentration 2.5): 6.5%
% inhibition Apo pol 5' (DRC-2; 5'; concentration 5): 27%
% inhibition Apo pol 5' (DRC-2; 5'; concentration 5 (unit not given)): 27%
% inhibition Apo pol 5' (DRC-2; 5'; concentration 10): 41%
% inhibition Apo pol 5' (DRC-2; 5'; concentration 20): 55%
% inhibition Apo pol 5' (DRC-2; 5'; concentration 40): 64%
% inhibition Apo pol 5' (DRC-2; 5'; concentration 80): 69%
% inhibition Apol 40' (DRC-2; 40'; concentration 2.5): -7%
% inhibition Apol 40' (DRC-2; 40'; concentration 5): 10%
% inhibition Apol 40' (DRC-2; 40'; concentration 10): 27%
% inhibition Apol 40' (DRC-2; 40'; concentration 20): 54%
% inhibition Apol 40' (DRC-2; 40'; concentration 40): 72%
% inhibition Apol 40' (DRC-2; 40'; concentration 80): 81%
% inhibition ApPOL 90' (DRC-2; 90'; concentration 2.5): -8%
% inhibition ApPOL 90' (DRC-2; 90'; concentration 5): 7%
% inhibition ApPOL 90' (DRC-2; 90'; concentration 10): 23%
% inhibition ApPOL 90' (DRC-2; 90'; concentration 20): 53%
% inhibition ApPOL 90' (DRC-2; 90'; concentration 40): 74%
% inhibition ApPOL 90' (DRC-2; 90'; concentration 80): 84%
% inhibition apPOL 180' (DRC-2; 180'; concentration 2.5): -3.79%
% inhibition apPOL 180' (DRC-2; 180'; concentration 5): 7%
% inhibition apPOL 180' (DRC-2; 180'; concentration 10): 20%
% inhibition apPOL 180' (DRC-2; 180'; concentration 20): 50%
% inhibition apPOL 180' (DRC-2; 180'; concentration 40): 75%
% inhibition apPOL 180' (DRC-2; 180'; concentration 80): 86%
DNA Pol (primary screen value of the library well; unit not given; 90 min, 10 µM): 27

O=C(c1c[nH]c2ncccc12)N1CCCCCC1 [Molecule 51]
IC50 [1]: 21.5 µM

Cc1cccc(-c2nnc3ccc(NS(=O)(=O)c4ccc(C)c(C)c4)nn23)c1 [Molecule 40]
IC50 [1]: 10.1 µM

Reference: publication PMC9090415, “Discovery of small molecule inhibitors of Plasmodium falciparum apicoplast DNA polymerase” (Journal of Enzyme Inhibition and Medicinal Chemistry, 2022)
